Results reported in patent US20240198287A1, “CARBON DIOXIDE RECOVERING METHOD AND CARBON DIOXIDE RECOVERING DEVICE” (MITSUBISHI GAS CHEMICAL COMPANY, INC., priority 2021, published 2024).

Test: Acid dissociation constant (pKa) by acid-base titration
Assay type: physicochemical
Settings: purified water; titration with 0.1 N perchloric acid-acetic acid solution, 25±2° C.
Procedure: In the present description, the acid dissociation constant of the amine compound (a) is a value obtained by the following measurement method based on an acid-base titration method. • (1) Dissolving 0.2 g of the amine compound (a) in 30 mL of purified water. • (2) Calculating the acid dissociation constant (pKa) by titrating the solution obtained in the above (1) with 0.1 N perchloric acid-acetic acid solution using an automatic potentiometric titrator (for example, AT-610 produced by Kyoto Electronics Manufacturing Co., Ltd.).
Still, let a temperature at a time of measurement be 25±2° C.
The acid dissociation constant of the amine compound (a) was determined by the following method. • (1) Dissolving 0.2 g of the amine compound (a) in 30 mL of the purified water. • (2) Calculating the acid dissociation constant (pKa) by titrating the solution obtained in the above (1) with the 0.1 N perchloric acid-acetic acid solution using the automatic potentiometric titrator (AT-610 produced by Kyoto Electronics Manufacturing Co., Ltd.).
Still, let the temperature at the time of measurement be 25±2° C.

A pKa of 10.8 was found for `NCC1CCCC(CN)C1` (stereo not shown) [1,3-BAC, 1,3-bis(aminomethyl)cyclohexane] in this work.
